Calls of active or inactive are those of the source.
Legend:
[1] = molecular target: Sphingosine 1-phosphate receptor 1 (Homo sapiens, UniProt P21453); type: functional;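 note: Tango beta-arrestin reporter U2OS cells stimulated with S1P near its EC80; inhibitor potency meaning antagonism of receptor activation by the natural agonist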
[2] = molecular target: Transitional endoplasmic reticulum ATPase (Homo sapiens, UniProt P55072, C522A); test: C522A mutant p97 ATPase inhibitors, dose response, counter-screen for p97 inhibitor project, biochemical, luminescence (AID 1544)
[3] = molecular target: T1, Zinc finger protein mex-5 (Caenorhabditis elegans, UniProt Q9XUB2); test: potency of MEX-5 RNA-binding blockers – biochemical, C. elegans, fluorescence polarization, dose response (AID 1960)
T1 sequence (Q9XUB2 whole entry): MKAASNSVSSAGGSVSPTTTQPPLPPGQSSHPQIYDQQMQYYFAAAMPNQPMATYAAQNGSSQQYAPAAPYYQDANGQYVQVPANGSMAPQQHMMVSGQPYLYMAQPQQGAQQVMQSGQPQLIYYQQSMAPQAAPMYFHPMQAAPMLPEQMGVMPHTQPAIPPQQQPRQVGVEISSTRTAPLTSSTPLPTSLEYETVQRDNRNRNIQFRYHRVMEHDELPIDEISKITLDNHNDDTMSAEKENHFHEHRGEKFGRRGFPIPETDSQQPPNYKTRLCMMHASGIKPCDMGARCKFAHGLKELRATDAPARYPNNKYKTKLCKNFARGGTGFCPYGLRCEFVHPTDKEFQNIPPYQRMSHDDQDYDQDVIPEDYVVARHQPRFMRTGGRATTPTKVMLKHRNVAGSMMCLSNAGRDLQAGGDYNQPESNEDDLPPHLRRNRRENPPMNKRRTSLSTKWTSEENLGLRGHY

Hexokinase-1 = molecular target: T2, Hexokinase-1 (Homo sapiens, UniProt P19367); test: HK1 enzyme activation by HKDC1 hits – biochemical, selectivity assay for HKDC1 activator project, dose response (AID 504762); type: functional
T2 sequence (P19367 whole entry): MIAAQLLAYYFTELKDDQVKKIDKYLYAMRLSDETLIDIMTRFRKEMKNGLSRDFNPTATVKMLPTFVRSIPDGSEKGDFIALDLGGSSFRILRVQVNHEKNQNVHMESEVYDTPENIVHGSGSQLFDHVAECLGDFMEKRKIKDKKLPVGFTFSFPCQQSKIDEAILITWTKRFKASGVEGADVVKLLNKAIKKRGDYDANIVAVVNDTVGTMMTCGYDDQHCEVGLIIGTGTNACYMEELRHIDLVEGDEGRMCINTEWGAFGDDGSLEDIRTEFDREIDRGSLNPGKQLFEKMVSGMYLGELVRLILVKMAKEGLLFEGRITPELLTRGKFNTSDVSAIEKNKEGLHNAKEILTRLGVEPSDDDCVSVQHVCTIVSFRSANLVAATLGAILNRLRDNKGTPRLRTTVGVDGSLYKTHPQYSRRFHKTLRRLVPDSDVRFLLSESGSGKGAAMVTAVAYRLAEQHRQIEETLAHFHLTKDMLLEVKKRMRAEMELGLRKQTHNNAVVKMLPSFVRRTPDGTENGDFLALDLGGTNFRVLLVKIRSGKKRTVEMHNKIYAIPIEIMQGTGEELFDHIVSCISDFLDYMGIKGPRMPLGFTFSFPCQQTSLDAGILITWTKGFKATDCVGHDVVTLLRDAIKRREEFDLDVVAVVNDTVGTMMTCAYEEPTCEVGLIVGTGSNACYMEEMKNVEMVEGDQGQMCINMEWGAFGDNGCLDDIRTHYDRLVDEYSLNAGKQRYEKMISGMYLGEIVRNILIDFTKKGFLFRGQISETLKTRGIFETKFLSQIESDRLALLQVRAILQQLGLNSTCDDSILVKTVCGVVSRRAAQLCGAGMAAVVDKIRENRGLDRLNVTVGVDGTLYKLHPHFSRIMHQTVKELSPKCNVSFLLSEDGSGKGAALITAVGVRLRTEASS

Caspase-3 = molecular target: T3, Caspase-3 (Homo sapiens, UniProt P42574); test: SAR Analysis of small molecule inhibitors of Sentrin-specific proteases (SENPs) using a Caspase-3 Selectivity assay. [Related pubchem assays (depositor defined):AID2540, AID2599, AID434973, AID489001]; type: functional
T3 sequence (P42574 whole entry): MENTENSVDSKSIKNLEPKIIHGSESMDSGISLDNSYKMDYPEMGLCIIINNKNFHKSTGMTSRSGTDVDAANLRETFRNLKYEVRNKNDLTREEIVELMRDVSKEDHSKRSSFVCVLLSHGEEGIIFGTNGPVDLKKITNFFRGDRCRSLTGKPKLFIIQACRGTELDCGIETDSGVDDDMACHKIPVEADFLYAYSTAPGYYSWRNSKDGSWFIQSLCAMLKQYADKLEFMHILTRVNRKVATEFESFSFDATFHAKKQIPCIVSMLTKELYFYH

[4] = molecular target: T4, Heat shock factor protein 1 (Mus musculus, UniProt P38532); test: enhancement of HSF1-driven luciferase signal – cell-based, NIH3T3, luminescence, dose retest, confirmation (AID 435004); type: functional;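 note: stress induced by proteasome inhibitor MG132 added 30 min after compound; luciferase reporter driven by HSF1 response element in NIH3T3 cells; actives raise luminescence as potentiators of the MG132 stress response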
T4 sequence (P38532 whole entry): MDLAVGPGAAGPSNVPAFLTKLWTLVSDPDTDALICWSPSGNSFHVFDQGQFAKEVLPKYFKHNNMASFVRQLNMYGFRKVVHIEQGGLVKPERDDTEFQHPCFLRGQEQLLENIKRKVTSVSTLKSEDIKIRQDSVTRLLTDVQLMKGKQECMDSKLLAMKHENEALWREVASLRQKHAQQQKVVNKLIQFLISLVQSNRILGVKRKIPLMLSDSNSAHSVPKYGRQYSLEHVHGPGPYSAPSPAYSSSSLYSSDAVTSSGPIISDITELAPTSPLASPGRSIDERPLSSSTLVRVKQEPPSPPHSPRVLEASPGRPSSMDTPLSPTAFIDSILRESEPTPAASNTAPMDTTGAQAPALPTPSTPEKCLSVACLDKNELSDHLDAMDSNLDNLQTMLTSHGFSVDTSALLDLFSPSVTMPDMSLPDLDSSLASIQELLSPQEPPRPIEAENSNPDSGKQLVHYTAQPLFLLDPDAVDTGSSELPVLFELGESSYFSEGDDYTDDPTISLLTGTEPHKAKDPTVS

[5] = molecular target: ATP-dependent molecular chaperone HSP82 (Candida albicans (strain WO-1) (Yeast), UniProt C4YTQ8); test: steroid-induced GRE reporter decrease in yeast – S. cerevisiae, luminescence, Hsp90 inhibitor project, dose response (AID 2400); type: functional, cell-based;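 note: beta-galactosidase luminescence from glucocorticoid response element reporter as proxy for Hsp90 function; inhibitor potency where signal loss means Hsp90 inhibition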
[6] = non-specific 3'UTR reporter inhibition in Clone20-Shn3RL – cell-based, Renilla luciferase, cherry-picked, counter-screen for Shn3 inhibitor project, dose response (AID 624133); type: functional
[7] = fluconazole-exposed Candida albicans growth modulators – fluorescence, retest, confirmation (AID 2467); type: functional, cell-based
HEK293 = test: HEK293T cell viability loss, resazurin readout – resazurin fluorescence, cytotoxicity control for NF-kB activator project, SAR follow-up (AID 493251); type: functional, cell-based; conditions: Homo sapiens

ATP-dependent molecular chaperone HSP82, sequence (C4YTQ8 whole entry): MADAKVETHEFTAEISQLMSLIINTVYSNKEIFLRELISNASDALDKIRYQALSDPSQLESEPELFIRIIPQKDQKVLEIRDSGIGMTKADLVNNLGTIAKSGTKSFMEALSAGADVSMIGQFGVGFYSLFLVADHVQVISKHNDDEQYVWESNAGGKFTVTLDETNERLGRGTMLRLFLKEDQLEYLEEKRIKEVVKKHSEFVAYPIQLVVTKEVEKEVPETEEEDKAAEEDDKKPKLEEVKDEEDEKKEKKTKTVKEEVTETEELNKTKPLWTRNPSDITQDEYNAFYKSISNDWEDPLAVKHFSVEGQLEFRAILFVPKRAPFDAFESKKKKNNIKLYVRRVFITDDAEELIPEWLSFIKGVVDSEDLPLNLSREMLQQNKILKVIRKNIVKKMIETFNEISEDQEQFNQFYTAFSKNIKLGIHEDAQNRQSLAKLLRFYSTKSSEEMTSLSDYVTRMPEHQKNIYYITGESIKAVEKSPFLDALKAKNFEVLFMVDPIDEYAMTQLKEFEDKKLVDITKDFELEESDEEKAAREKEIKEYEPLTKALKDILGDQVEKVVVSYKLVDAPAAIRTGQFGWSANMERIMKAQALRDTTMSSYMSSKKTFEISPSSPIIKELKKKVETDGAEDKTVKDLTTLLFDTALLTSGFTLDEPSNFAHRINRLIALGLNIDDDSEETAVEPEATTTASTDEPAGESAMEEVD
Sphingosine 1-phosphate receptor 1, sequence (P21453 whole entry): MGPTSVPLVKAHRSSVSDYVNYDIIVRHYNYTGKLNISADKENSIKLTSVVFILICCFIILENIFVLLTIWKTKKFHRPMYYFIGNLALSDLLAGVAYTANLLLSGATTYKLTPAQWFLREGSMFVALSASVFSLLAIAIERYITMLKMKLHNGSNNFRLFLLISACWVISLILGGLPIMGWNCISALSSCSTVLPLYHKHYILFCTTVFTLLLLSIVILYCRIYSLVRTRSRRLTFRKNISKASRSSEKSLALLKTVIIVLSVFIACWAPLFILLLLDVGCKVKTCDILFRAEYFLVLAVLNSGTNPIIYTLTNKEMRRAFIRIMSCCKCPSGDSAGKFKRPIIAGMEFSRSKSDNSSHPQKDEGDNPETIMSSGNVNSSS
Transitional endoplasmic reticulum ATPase, sequence (P55072 2-806 C522A limits assumed): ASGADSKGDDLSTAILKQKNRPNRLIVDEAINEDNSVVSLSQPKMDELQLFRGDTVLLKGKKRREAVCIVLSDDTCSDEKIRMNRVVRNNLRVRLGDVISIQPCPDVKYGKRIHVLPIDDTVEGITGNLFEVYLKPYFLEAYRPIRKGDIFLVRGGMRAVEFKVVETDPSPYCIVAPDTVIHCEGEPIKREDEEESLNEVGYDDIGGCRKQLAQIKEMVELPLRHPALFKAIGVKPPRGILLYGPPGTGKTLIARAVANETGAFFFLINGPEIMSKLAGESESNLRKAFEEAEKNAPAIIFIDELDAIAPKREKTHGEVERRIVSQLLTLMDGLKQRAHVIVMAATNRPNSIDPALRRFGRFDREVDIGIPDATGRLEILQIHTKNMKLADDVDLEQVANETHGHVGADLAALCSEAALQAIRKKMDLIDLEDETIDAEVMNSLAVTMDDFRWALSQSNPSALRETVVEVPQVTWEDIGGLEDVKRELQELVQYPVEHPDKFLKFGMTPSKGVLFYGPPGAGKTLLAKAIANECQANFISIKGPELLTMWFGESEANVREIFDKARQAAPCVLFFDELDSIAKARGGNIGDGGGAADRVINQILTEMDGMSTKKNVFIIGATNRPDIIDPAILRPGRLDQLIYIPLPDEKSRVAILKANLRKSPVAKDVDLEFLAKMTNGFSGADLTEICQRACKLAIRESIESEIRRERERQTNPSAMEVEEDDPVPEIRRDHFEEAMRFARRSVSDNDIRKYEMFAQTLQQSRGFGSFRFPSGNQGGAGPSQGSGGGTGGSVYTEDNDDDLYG

Question: For `Cn1nc(-c2ccc(Cl)cc2)nc2c(=O)n(C)c(=O)nc1-2`, which IC50 [1] is on record?
Answer: Its IC50 is 2.34 µM (active).

Question: What about the IC50 [2] of the same molecule?
Answer: The IC50 was > 50 µM (not active).

Question: What about the EC50 [3] of the same molecule?
Answer: Its EC50 is 16.8 µM (active).

Question: Which EC50 (Hexokinase-1) does the source give for `SC1=Nc2ccccc2C1` here?
Answer: The EC50 was 19.3 µM (active).

Question: Which IC50 (Caspase-3) does the source give for `CCCCNc1cc(NC(C)=O)cc2cc(OC)c(OC)cc12` here?
Answer: The IC50 was > 99 µM (inactive).

Question: And the EC50 [4]?
Answer: Its EC50 is > 260 µM (inactive).

Question: With `COc1ccc(C(NC(=O)C(C)C)c2ccc3cccnc3c2O)cc1` (stereo not given) as the molecule, how does the EC50 [5] read?
Answer: Its EC50 is 52.4 µM (active).

Question: What about the AC50 [6] of the same molecule?
Answer: Its AC50 is 2.27 µM (active).

Question: And the EC50 [7]?
Answer: Its EC50 is 0.692 µM (active).

Question: And the IC50 (HEK293)?
Answer: The IC50 was 41.3 µM (inactive).

Reference: ChEMBL document CHEMBL1201862, “PubChem BioAssay data set” (2004)
